Experimental data taken from patent publication US11633370B2, “Use of scavengers of reactive gamma-ketoaldehydes to extend cell lifespan and healthspan” (Vanderbilt University, priority 2016, dated 2023).

Experiments:
[1] = tested on: intact cells exposed to hydrogen peroxide; settings: SA pre-treatment, vehicle control 95% cell death; cited from earlier work
[2] = tested on: VC199 SIR-2.1 mutants; assay: Oxygen consumption rate of whole worms, VC199; format: in vivo, C. elegans; settings: whole worms over several days; p>0.05
Text: Mitochondria lie at the center of aging biology, playing crucial roles in energy production, carbon substrate metabolism, apoptosis regulation, and redox balance and signaling. Since sirtuins play a major role in regulating mitochondrial function, the present inventors next wanted to investigate whether SA was exerting any of its effects via protection of mitochondrial processes. To investigate SA's effects on mitochondrial respiration, the present inventors administered SA to WT N2 (FIG. 5A) and non-functional SIR-2.1 mutant worms (FIG. 5B) and measured oxygen consumption rate (OCR) in whole worms over several days. […] The present inventors also examined the effect of SA treatment on mitochondrial DNA (mtDNA) integrity.
Oxygen consumption rate for whole C. elegans was measured using a Seahorse Bioscience XF^e96 Analyzer. Worms were harvested from Day 0, 2, and 15 colonies maintained on FUDR containing SA-OP50-seeded NGM plates by washing in M9 medium, followed by floatation on an ice-cold 60% w/v sucrose gradient to segregate clean bacteria-free adult worms from bacterial debris. Worms were seeded at 1,000 worms/well in M9. After 20 min equilibration, a 2-min measurement was performed to obtain basal OCR for all experimental conditions and strains.

[3] = in vivo; cited from earlier work
[4] = compared with pyridoxamine (PM); cited from earlier work
[5] = tested on: VC199 non-functional SIR-2.1 mutants; assay: Real-time RT-PCR of ets-7, VC199; format: in vivo, C. elegans; settings: highest dose of SA, Day 15 VC199; p<0.01
Text: First, to validate the microarray results, the present inventors performed real-time RT-PCR on four genes, siah-1, sma-4, F13D12.6, and ets-7 (FIG. 6B). […] Messenger RNA levels for siah-1 and sma-4 were decreased by nearly 25%, as well as F13D12.6 and ets-7 were increased by nearly 25% by SA administration (p<0.05). Pathway Analysis using Gene Ontology (GO) with WEB-based Gene SeT Analysis Toolkit (WEBGESTALT <http://bioinfo.vanderbilt.edu/webgestalt/>) highlighted the metabolic process, lipid metabolic process, proteolysis pathways among many others as being altered favorably by the administration of SA (see Supplemental Data). From the array data confirmed by RT-PCR, the present inventors identified the ETS class transcription factor ETS-7 as a protein of interest. ETS factors are known to be involved in regulating lipid metabolism and regulate lifespan in both Drosophila melanogaster and C. elegans. […] In order to test this, the present inventors carried out real-time RT-PCR quantification of ets-7 in non-functional SIR-2.1 mutant nematodes treated with increasing doses of SA (FIG. 6E).
Total RNA was isolated via the Trizol method, as described previously. […] Quantitative real time PCR (Bio-Rad) was conducted using TaqMan Gene Expression Assay Probes (Life Technologies) for each gene. […]

[6] = tested on: daf-16(mu86); assay: Longevity assay, daf-16 gene knockout mutant strain; format: in vivo, C. elegans; settings: SA from day 1 of adulthood; P<0.01 versus vehicle control
Protocol: C. elegans strains were cultured at 20° C. on standard nematode growth media (NGM) agar plates seeded with Escherichia coli strain NA22. The following strains were used in this work: wild-type C. elegans Bristol strain (N2), sir-2.1(ok434) IV, F19F10.5(ok888) V, and daf-16(mu86). Strains were obtained from the Caenorhabditis Genetics Center (University of Minnesota, St. Paul, Minn.). For generating cultures of 15-day-old (Day 15) adult worms, synchronized late-stage L4s/early young adult worms were transferred to peptone enriched 15 cm plates containing UV-irradiated OP50 E. coli and 0.12 mM 5-fluoro-2′-deoxyuridine (FUDR) to inhibit progeny production[88] with or without drug until harvest.
Survival cultures were grown on 60-mm agar plates; after the late-stage L4/young adult molt, approximately 100 adults were transferred onto SA-OP50-seeded NGM plates. Salicylamine drug plates were made fresh before transfer by spreading SA on top of the agar. […] Worms were maintained at 20° C. and live worms were counted during transfer to freshly made SA-OP50-NGM agar plates every 2-3 days. Survival was scored as movement upon slight touch with the platinum wire. […]
FIG. 7 (S1). […] Survival was assessed every 2 days until all the worms died. […] Data are expressed as means±SEM from four independent experiments. *P<0.01 as compared to vehicle control.

[7] = compared with pyridoxamine (PM); cited from earlier work; remark: listed apart in the source

## NCc1ccccc1O [SA, salicylamine]
[1]
  occurrence in cell death: 5%
[2]
  mitochondrial oxygen consumption rate (OCR): no effect
[3]
  oral bioavailability: orally bioavailable
[4]
  lipophilicity: more lipophilic
[5]
  increase in ets-7 mRNA expression: 442%
[6]
  maximum and median lifespan: increased maximum and median lifespan
[7]
  potency and selectivity for scavenging isoketals: similarly potent and as selective as PM
